The target in the assay is T1, epidermal growth factor receptor (EGFR) (Homo sapiens, UniProt P00533).
T1 construct: extracellular domain
The assay is described as follows: SPR (Biacore S200, EGFR amine-coupled to CM5 chip, […] model); also BLI (Octet RED96) at […]. The class given is binding. A general note: Surface plasmon resonance follows binding to a sensor surface in real time, without labels.

Molecules are shown by their SMILES.

We go through one compound from paper PMC10531337 (International Journal of Molecular Sciences, 2023).

T1 sequence (P00533 25-645 limits assumed): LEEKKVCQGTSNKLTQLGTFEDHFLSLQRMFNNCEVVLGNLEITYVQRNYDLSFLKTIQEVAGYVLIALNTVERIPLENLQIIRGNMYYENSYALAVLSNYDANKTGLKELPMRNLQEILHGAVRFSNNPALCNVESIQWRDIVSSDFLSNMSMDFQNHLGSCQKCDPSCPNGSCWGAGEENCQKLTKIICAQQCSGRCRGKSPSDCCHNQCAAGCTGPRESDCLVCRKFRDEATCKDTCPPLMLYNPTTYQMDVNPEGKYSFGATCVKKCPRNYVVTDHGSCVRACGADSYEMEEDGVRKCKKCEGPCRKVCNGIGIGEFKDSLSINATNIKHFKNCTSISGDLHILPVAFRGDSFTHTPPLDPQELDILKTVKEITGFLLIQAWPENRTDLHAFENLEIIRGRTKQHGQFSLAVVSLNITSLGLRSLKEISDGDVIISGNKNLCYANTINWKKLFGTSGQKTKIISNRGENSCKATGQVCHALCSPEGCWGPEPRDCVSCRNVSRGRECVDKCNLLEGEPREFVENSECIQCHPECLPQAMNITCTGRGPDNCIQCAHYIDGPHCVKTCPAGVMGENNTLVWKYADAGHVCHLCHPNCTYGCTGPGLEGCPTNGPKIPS

Regarding `O=C(O[C@@H]1Cc2c(O)cc(O)cc2O[C@@H]1c1cc(O)c(O)c(O)c1-c1c([C@H]2Oc3cc(O)cc(O)c3C[C@H]2OC(=O)c2cc(O)c(O)c(O)c2)cc(O)c(O)c1O)c1cc(O)c(O)c(O)c1` [compound 3, theasinensin A], the Kd (as a rule, the free concentration of one partner at which half of the binding sites on the other are occupied at equilibrium, for simple one-to-one binding) stood at 7.14 µM.
